How the values were obtained:
[1] = test system: insulin granules in pancreatic β-cells; experiment: CCCP-mediated de-acidification of insulin granules, LSG fluorescence; type: cell-based, mouse; settings: DIDS blockade of Cl− conductance, CCCP
Experimental: FIG. 7A, Representative confocal images of LSG fluorescence immediately before (zero) and 60 s after perfusion of cells with intracellular buffer supplemented with 100 μM of the protonophore, CCCP, in the absence or presence of 10 μM Ins(3,4,5,6)P4. FIG. 7B, Representative time-courses for changes in LSG-fluorescence ([F/F0] as % of zero time) immediately after establishing a standard whole-cell configuration as in panel A, with intracellular medium (containing 0.4 μM [Ca^2+]free except where “no calcium” is indicated; see Methods) plus 100 μM CCCP, together with either 0 (“control”) or 10 μM Ins(3,4,5,6)P4. FIG. 7C, Mean (±SE) fluorescence changes (n=4-6), during the 60 s that followed establishment of the standard whole-cell configuration, for cells perfused with intracellular medium supplemented with inositol phosphates as indicated at the base of the bar graph ([…]).
The inositol phosphates used in this study were all purchased from CellSignals Inc (Lexington, Ky.). Insulin granule pH were monitored by combining the patch-clamp technique with confocal imaging. Pancreatic β-cells, isolated and cultured on glass coverslips for 2-24 h, were voltage clamped at −70 mV, as previously described (B9). LysoSensor-Green™ DND-189 (1 μM; Molecular Probes, Leiden, The Netherlands) was added during the last 30 min of cell culture and was also included in the extracellular buffer (B9) that continuously perfused the experimental chamber. All LSG experiments were performed at 20° C. to prevent exocytosis that otherwise interfered with the optical measurements (15). LSG fluorescence was excited using the 488 nm-line of a Zeiss 510 confocal microscope. The emitted light was collected with a 63×/1.3 NA oil objective and a >505 nm filter. Laser scanning was performed with low pixel resolution (128×128) and with 6 s intervals to minimize photo-bleaching. After gigaseal formation, it was ascertained that LSG fluorescence was stable for at least 30 s before the experiment commenced. The intracellular electrode solution contained: 125 mM K-glutamate, 10 mM KCl, 1 0 mM NaCl, 1 mM MgCl2, 5 mM HEPES, 3 mM Mg-ATP, 0.1 mM cAMP, 10 mM EGTA and 7 mM CaCl2 (˜0.4 μM free [Ca^2+]I; pH 7.2 with KOH). In some experiments, marked “no calcium”, there was no added Ca^2+, and the concentration of EGTA was 50 μM. Whole-cell capacitance measurements (at 33° C.) were made with the cells clamped at −70 mV, and the standard whole-cell configuration was established at t=0. Capacitance recordings were made using an EPC-7 patch-clamp amplifier equipped with the software Pulse (version 8.4 and later) and the X-chart extension (HEKA Elektronik, Lambrecht/Pfalz, Germany) (B9). […]

[2] = test system: insulin granules in pancreatic β-cells; experiment: Insulin granule acidification, LSG fluorescence with patch-clamp and confocal imaging; type: cell-based, mouse; settings: DIDS 100 μM in bath solution 30 min prior to patching
Experimental: FIG. 6. Ins(3,4,5,6)P4 inhibits acidification of insulin granules in pancreatic β-cells. FIG. 6A, Representative time-courses for intragranular acidification, monitored by increased fluorescence of LSG before and after establishment of the standard whole-cell configuration (see arrow) and the effect of perfusion of intracellular medium (containing 0.4 μM [Ca^2+]free except where “no calcium” is indicated; see Methods) plus either 0 (“control”), 1 or 10 μM Ins(3,4,5,6)P4. FIG. 6B, Mean (±SE) fluorescence changes (n-5-11), during the 60 s that followed establishment of the standard whole-cell configuration, for cells perfused with inositol phosphates as indicated at the base of the bar graph. Where indicated, DIDS (100 μM) were added to the bath solution 30 min prior to patching the cells. Statistical significance was evaluated by Student's unpaired t-test (* P<0.01).
The inositol phosphates used in this study were all purchased from CellSignals Inc (Lexington, Ky.). Insulin granule pH were monitored by combining the patch-clamp technique with confocal imaging. Pancreatic β-cells, isolated and cultured on glass coverslips for 2-24 h, were voltage clamped at −70 mV, as previously described (B9). LysoSensor-Green™ DND-189 (1 μM; Molecular Probes, Leiden, The Netherlands) was added during the last 30 min of cell culture and was also included in the extracellular buffer (B9) that continuously perfused the experimental chamber. All LSG experiments were performed at 20° C. to prevent exocytosis that otherwise interfered with the optical measurements (15). LSG fluorescence was excited using the 488 nm-line of a Zeiss 510 confocal microscope. The emitted light was collected with a 63×/1.3 NA oil objective and a >505 nm filter. Laser scanning was performed with low pixel resolution (128×128) and with 6 s intervals to minimize photo-bleaching. After gigaseal formation, it was ascertained that LSG fluorescence was stable for at least 30 s before the experiment commenced. The intracellular electrode solution contained: 125 mM K-glutamate, 10 mM KCl, 1 0 mM NaCl, 1 mM MgCl2, 5 mM HEPES, 3 mM Mg-ATP, 0.1 mM cAMP, 10 mM EGTA and 7 mM CaCl2 (˜0.4 μM free [Ca^2+]I; pH 7.2 with KOH). In some experiments, marked “no calcium”, there was no added Ca^2+, and the concentration of EGTA was 50 μM. Whole-cell capacitance measurements (at 33° C.) were made with the cells clamped at −70 mV, and the standard whole-cell configuration was established at t=0. Capacitance recordings were made using an EPC-7 patch-clamp amplifier equipped with the software Pulse (version 8.4 and later) and the X-chart extension (HEKA Elektronik, Lambrecht/Pfalz, Germany) (B9).

[3] = biological target: T1, Ins(1,3,4,5,6)P5 1-phosphatase activity of Ins(3,4,5,6)P4 kinase (Homo sapiens, UniProt Q13572); experiment: Inositol phosphate phosphatase activity assay with ADP (HPLC); type: biochemical; settings: 5 mM ADP, trace amounts of substrate
T1 construct: made in house; host or cells: E. coli
T1 sequence (Q13572 1-414): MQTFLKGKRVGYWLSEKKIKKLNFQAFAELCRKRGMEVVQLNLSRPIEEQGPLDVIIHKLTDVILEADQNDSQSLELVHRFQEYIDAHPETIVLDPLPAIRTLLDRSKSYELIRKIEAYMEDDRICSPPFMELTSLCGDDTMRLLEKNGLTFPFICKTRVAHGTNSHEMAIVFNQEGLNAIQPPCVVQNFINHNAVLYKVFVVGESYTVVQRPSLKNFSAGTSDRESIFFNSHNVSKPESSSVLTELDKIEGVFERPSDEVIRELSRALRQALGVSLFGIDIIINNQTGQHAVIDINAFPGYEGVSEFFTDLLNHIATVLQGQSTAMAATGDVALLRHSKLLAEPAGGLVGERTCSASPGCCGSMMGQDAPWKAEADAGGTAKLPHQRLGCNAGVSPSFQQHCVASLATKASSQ
Experimental: Ins(3,4,5,6)P4 kinase (0.4 μg) was incubated for 30 min in 100 μl phosphatase assay buffer (see Methods) either with (closed circles) or without (open circles) 5 mM ADP plus trace-amounts of either [^3H]Ins(1,3,4,5,6)P5 (panel A) [^3H]Ins(1,3,4,6)P4 (panel B), or [^3H]Ins(1,3,4,5)P4 (panel C). Samples were analyzed by HPLC (see Methods). The elution positions of Ins(1,3,4)P3 and Ins(3,4,5,6)P4 were verified with genuine standards. The elution positions of Ins(1,3,4,6)P4 (106 min, panel B) and of Ins(1,3,4,5)P4 (110 min, panel C) exclude these as products of InsP5 dephosphorylation (panel A).
Additional incubations were performed with 5 μM [^3H]Ins(1,3,4)P3 (approx. 1200 d.p.m.) plus either no Ins(1,3,4,5,6)P5 (open circles) or 5 μM non-radiolabeled Ins(1,3,4,5,6)P5 (closed circles); these reactions were assayed by HPLC (Synchropak Q100 column) and the InsP4 region of the chromatogram is shown in Panel B.
(§1) Inositol phosphate phosphatase activity was assayed in buffer containing 100 mM KCl, 20 mM HEPES pH 7.2, 5 mM ADP, 6 mM MgSO4, 0.3 mg/ml bovine serum albumin. Assays were acid-quenched, neutralized and analyzed by HPLC using a Synchropak Q100 columm (Caffrey et al., “Expanding Coincident Signaling by PTEN through its Inositol 1,3,4,5,6-Pentakisphosphate 3-phosphatase Activity,” FEBS Lett 499: 6-10 (2001)); 1 ml fractions were collected for 70 min., followed by 0.5 ml fractions. Inositol phosphate kinase activity was assayed in buffer containing 100 mM KCl, 20 mM HEPES pH 7.2, 5 mM ATP, 10 mM phosphocreatine, 6 mM MgSO4, 10 μg/ml creatine phosphokinase (Calbiochem), 0.3 mg/ml bovine serum albumin. Some assays were acid-quenched and analyzed by HPLC using a Synchropak Q100 column. Other reactions were heat-inactivated (95° C., 3 min) and analyzed by a metal dye detection, HPLC method (Mayr, “A novel metal-dye detection sysytem permits picomolar-range h.p.l.c. analysis of inositol polyphosphates from non-radioactively labelled cell or tissue specimens,” Biochem J 254: 585-591 (1988); Adelt et al., “Enzyme-assisted total synthesis of the optical antipodes D-myo-inositol 3,4,5-trisphosphate and D-myo-inositol 1,5,6-trisphosphate: aspects of their structure-activity relationship to biologically active inositol phosphates,” J Med Chem 42: 1262-1273 (1999)).

[4] = biological target: T2, Recombinant human Ins(3,4,5,6)P4 1-kinase (Homo sapiens, UniProt Q13572); experiment: Inositol phosphate kinase activity assay (HPLC); type: biochemical
T2 construct: made in house; host or cells: E. coli
T2 sequence (Q13572 1-414): T1 sequence (Q13572 1-414)
Experimental: as §1
Activity of 3.4 ug of inositol 3,4,5,6-tetrakisphosphate 1-kinase was assayed for 4 hr. at 37° C. in 200 μl buffer containing 100 mM KCl, 20 mM HEPES pH 7.2, 5 mM ATP, 10 mM phosphocreatine, 6 mM MgSO4, 10 μg/ml creatine phosphokinase (Calbiochem), 0.3 mg/ml bovine serum albumin and 50 uM of either inositol 3,4,5-trisphosphate, 4,5,6-trisphosphate or inositol 3,5,6-trisphosphate. Reactions were heat-inactivated (95° C., 3 min) and analyzed by a metal dye detection, HPLC method.
[…] (Manassas, Va.) supplied the CFPAC-1 cells and T84 cells. Recombinant human Ins(3,4,5,6)P4 1-kinase was expressed in E. coli and purified (Yang et al., “Multitasking in Signal Transduction by a Promiscuous Human Ins(3,4,5,6)P4 1-Kinase/Ins(1,3,4)P3 5/6-Kinase,” Biochem J 351: 551-555 (2000)). Non-radiolabeled Ins(1,3,4)P3 and Ins(1,3,4,5,6)P5 were purchased from CellSignals Inc (Lexington, Ky.). The details of the synthesis of non-radiolabeled Ins(3,4,5)P3, Ins(3,5,6)P3, Ins(4,5,6)P3 and Ins(3,4,6)P3 (as sodium salts) will be published separately by S.-K. C. Ins(3,4,6)P3 was also prepared by a different synthetic route (Mills et al., “Synthesis of D- and L-myo-inositol 1,4,6-trisphosphate, regioisomers of a ubiquitous second messenger,” J Org Chem 61: 8980-8987 (1996)). [^3H]Ins(1,3,4,5,6)P5 was prepared as previously described (Zhang et al., “The Transcriptional Regulator, Arg82, is a Hybrid Kinase with both Monophosphoinositol- and Diphosphoinositol-Polyphosphate Synthase Activity,” FEBS Lett 494: 208-212 (2001)). [^3H]Ins(1,3,4)P3 was prepared from [^3H]Ins(1,3,4,5)P4 (New England Nuclear) using recombinant Ins(1,4,5)P3/Ins(1,3,4,5)P4 5-phosphatase (Erneux et al., “Production of recombinant human brain type I inositol-1,4,5-trisphosphate 5-phosphatase in Escherichia coli. Lack of phosphorylation by protein kinase C,” Eur J Biochem 234: 598-602 (1995)). [^3H]Ins(1,3,4)P3 was converted to [^3H]Ins(1,3,4,6)P4 using Ins(1,3,4)P3 6-kinase activity (Yang et al., “Multitasking in Signal Transduction by a Promiscuous Human Ins(3,4,5,6)P4 1-Kinase/Ins(1,3,4)P3 5/6-Kinase,” Biochem J 351: 551-555 (2000)). [^3H]Ins(3,4)P2 was prepared by alkaline phosphatase attack on [^3H]Ins(1,3,4)P3 in 20 mM glycine (pH 9.0 with KOH). [^3H]Ins(1,4)P2 was purchased from New England Nuclear.

SMILES | effect on loss of H+ from the granules [1] | effect on granule acidification [2] | product of ADP-dependent dephosphorylation [3] | whether the enzyme phosphorylates the inositol phosphate [4]
O=S(=O)(O)c1cc(N=C=S)ccc1C=Cc1ccc(N=C=S)cc1S(=O)(=O)O [DIDS, 4,4′-diisothiocyanostilbene-2,2′-disulfonic acid] | inhibited | inhibited | – | –
O=P(O)(O)O[C@@H]1C(O)[C@H](OP(=O)(O)O)[C@@H](OP(=O)(O)O)C(O)[C@H]1OP(=O)(O)O (stereo partly shown) [Ins(1,3,4,6)P4] | – | – | dephosphorylated to Ins(1,3,4)P3 | does not phosphorylate

Source: patent US20060035810A1, “Regulation of ins(3456)p4 signalling by a reversible kinase phosphatase and methods and compositions related thereto” (priority 2002, published 2006)
